Results reported in patent US20230048132A1, “CYCLIN-DEPENDENT KINASE INHIBITORS” (SPV THERAPEUTICS INC., priority 2018, published 2023).
pIC50: −log10 of the molar value. Where two headings read alike, the source gives them in different places.

Assays:
CDK6-CYCLIND3 = target: T1, CDK6-CYCLIND3 (Homo sapiens, UniProt Q00534); assay: CDK inhibition assay (microfluidic LabChip, IC50 format); format: biochemical
T1 construct: purchased Carna

CDK4-CYCLIND1 = CDK4-CYCLIND1 (Homo sapiens, UniProt P11802); assay: as above
Chain of CDK4-CYCLIND1 (P11802 whole entry): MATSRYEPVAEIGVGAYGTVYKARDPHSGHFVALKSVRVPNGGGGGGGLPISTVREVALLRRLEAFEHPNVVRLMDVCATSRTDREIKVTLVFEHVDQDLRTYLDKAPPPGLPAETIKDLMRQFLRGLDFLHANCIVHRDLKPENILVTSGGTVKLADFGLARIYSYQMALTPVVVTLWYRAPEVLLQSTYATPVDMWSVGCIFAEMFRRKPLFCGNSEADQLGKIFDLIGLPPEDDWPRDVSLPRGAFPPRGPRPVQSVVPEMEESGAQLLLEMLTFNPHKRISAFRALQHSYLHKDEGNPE
Chain of CDK4-CYCLIND1 (P24385 whole entry partner): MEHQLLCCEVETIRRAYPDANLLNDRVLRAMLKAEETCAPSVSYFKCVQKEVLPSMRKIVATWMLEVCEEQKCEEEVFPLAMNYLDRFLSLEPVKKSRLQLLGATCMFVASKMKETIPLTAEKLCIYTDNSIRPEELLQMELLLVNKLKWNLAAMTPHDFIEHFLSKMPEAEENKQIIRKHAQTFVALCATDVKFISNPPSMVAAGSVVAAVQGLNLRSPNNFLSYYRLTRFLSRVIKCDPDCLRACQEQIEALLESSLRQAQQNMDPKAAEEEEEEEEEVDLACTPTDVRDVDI

[1] = Table 4b, upper part, read-out: CDK6 IC50
[2] = CDK4 IC50, Table 4b, upper part
[3] = Table 4b, lower part, read-out: CDK6 CyclinD3 IC50
[4] = CDK4 CyclinD1 IC50, Table 4b, lower part, a second value in parentheses for some compounds
[5] = Table 3, second value of the cell CDK4/CDK6, value of the racemate, read-out: Racemate Activity CDK6
[6] = Racemate Activity CDK4, Table 3, first value of the cell CDK4/CDK6, value of the racemate

T1 sequence (Q00534 whole entry): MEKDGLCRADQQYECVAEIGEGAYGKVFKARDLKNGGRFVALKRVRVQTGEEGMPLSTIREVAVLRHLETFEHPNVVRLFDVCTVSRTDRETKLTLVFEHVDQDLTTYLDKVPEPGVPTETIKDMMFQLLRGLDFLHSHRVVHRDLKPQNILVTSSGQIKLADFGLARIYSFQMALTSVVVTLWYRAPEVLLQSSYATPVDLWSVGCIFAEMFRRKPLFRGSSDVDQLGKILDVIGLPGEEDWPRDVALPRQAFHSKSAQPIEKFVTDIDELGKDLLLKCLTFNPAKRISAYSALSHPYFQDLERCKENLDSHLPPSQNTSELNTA
T1 sequence (P30281 whole entry partner): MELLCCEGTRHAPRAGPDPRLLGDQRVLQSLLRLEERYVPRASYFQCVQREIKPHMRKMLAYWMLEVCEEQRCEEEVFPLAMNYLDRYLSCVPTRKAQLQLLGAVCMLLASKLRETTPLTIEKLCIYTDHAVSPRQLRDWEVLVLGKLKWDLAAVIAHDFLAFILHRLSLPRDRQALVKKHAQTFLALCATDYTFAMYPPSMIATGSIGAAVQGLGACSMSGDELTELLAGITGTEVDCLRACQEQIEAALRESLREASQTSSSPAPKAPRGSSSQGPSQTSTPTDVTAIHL

**Q.** How did the pIC50 (CDK6-CYCLIND3; [1]) turn out when `CN1C(=O)CC2(Cc3cnc(Nc4ccc(OCCN5CCCC5)nc4)nc3N(C3CCCC3)C2=O)C1=O` (centres unmarked) [Example D31, 8-cyclopentyl-1′-methyl-2-((6-(2-(pyrrolidin-1-yl)ethoxy)pyridin-3-yl)amino)-5,8-dihydro-7H-spiro[pyrido[2,3-d]pyrimidine-6,3′-pyrrolidine]-2′,5′,7-trione] was run?
**A.** 6.20

**Q.** And the pIC50 (CDK4-CYCLIND1; [2])?
**A.** 6.73

**Q.** How did the pIC50 (CDK6-CYCLIND3; [1]) turn out when `CN1CCN(c2ccc(Nc3ncc4c(n3)N(C3CCCC3)C(=O)C3(CCNC3=O)C4)nc2)CC1` (centres unmarked) [Example D8, 8-cyclopentyl-2-((5-(4-methylpiperazin-1-yl)pyridin-2-yl)amino)-5,8-dihydro-7H-spiro[pyrido[2,3-d]pyrimidine-6,3′-pyrrolidine]-2′,7-dione] was run?
**A.** 8.41

**Q.** And the pIC50 (CDK4-CYCLIND1; [2])?
**A.** 8.69

**Q.** What does the source list for `O=C1NCCC12Cc1cnc(Nc3ccc(OCCN4CCCC4)nc3)nc1N(C1CCCC1)C2=O` (centres unmarked) [Example D15, 8-cyclopentyl-2-((6-(2-(pyrrolidin-1-yl)ethoxy)pyridin-3-yl)amino)-5,8-dihydro-7H-spiro[pyrido[2,3-d]pyrimidine-6,3′-pyrrolidine]-2′,7-dione]?
**A.** pIC50 (CDK6-CYCLIND3; [1]): 7.80; pIC50 (CDK4-CYCLIND1; [2]): 8.15

**Q.** Which results are given for `CN(C)[C@H]1CCN(c2ccc(Nc3ncc4c(n3)N(C3CCCC3)C(=O)C3(CCNC3=O)C4)cc2F)C1` (stereo partly drawn) [Example D45, 8-cyclopentyl-2-((4-((S)-3-(dimethylamino)pyrrolidin-1-yl)-3-fluorophenyl)amino)-5,8-dihydro-7H-spiro[pyrido[2,3-d]pyrimidine-6,3′-pyrrolidine]-2′,7-dione]?
**A.** pIC50 (CDK6-CYCLIND3; [1]): 8.26; pIC50 (CDK4-CYCLIND1; [2]): 8.57

**Q.** How did the pIC50 (CDK6-CYCLIND3; [1]) turn out when `CN(C)CCOc1ccc(Nc2ncc3c(n2)N(C2CCCC2)C(=O)C2(CCNC2=O)C3)cc1` (centres unmarked) [Example D13, 8-cyclopentyl-2-((4-(2-(dimethylamino)ethoxy)phenyl)amino)-5,8-dihydro-7H-spiro[pyrido[2,3-d]pyrimidine-6,3′-pyrrolidine]-2′,7-dione] was run?
**A.** 8.20

**Q.** What about the pIC50 (CDK4-CYCLIND1; [2]) of the same compound?
**A.** 8.47

**Q.** Which results are given for `CN1CCN(c2ccc(Nc3ncc4c(n3)N(C3CCCC3)C(=O)C3(CCN(C)C3=O)C4)cc2F)CC1` (centres unmarked) [Example D19, 8-cyclopentyl-2-((3-fluoro-4-(4-methylpiperazin-1-yl)phenyl)amino)-1′-methyl-5,8-dihydro-7H-spiro[pyrido[2,3-d]pyrimidine-6,3′-pyrrolidine]-2′,7-dione]?
**A.** pIC50 (CDK6-CYCLIND3; [1]): 7.01; pIC50 (CDK4-CYCLIND1; [2]): 7.47

**Q.** Which results are given for `CC(C)n1cc(-c2ccc(Nc3ncc4c(n3)N(C3CCCC3)C(=O)[C@]3(CCNC3=O)C4)cc2)cn1` [Example D195, (S)-8-cyclopentyl-2-((4-(1-isopropyl-1H-pyrazol-4-yl)phenyl)amino)-5,8-dihydro-7H-spiro[pyrido[2,3-d]pyrimidine-6,3′-pyrrolidine]-2′,7-dione]?
**A.** pIC50 (CDK6-CYCLIND3; [3]): 7.47; pIC50 (CDK4-CYCLIND1; [4]): 7.64

**Q.** What does the source list for `CN(C)CCOc1ccc(Nc2ncc3c(n2)N(C2CCCC2)C(=O)C2(CC(=O)N(C)C2=O)C3)cc1` (centres unmarked) [Example D28, 8-cyclopentyl-2-((4-(2-(dimethylamino)ethoxy)phenyl)amino)-1′-methyl-5,8-dihydro-7H-spiro[pyrido[2,3-d]pyrimidine-6,3′-pyrrolidine]-2′,5′,7-trione]?
**A.** pIC50 (CDK6-CYCLIND3; [1]): 6.31; pIC50 (CDK4-CYCLIND1; [2]): 6.81

**Q.** How did the pIC50 (CDK6-CYCLIND3; [5]) turn out when `O=C1NCCC12Cc1cnc(Nc3ccc(N4CCNCC4)cc3)nc1N(C1CCCC1)C2=O` (centres unmarked) [Example D3, 8-cyclopentyl-2-((4-(piperazin-1-yl)phenyl)amino)-5,8-dihydro-7H-spiro[pyrido[2,3-d]pyrimidine-6,3′-pyrrolidine]-2′,7-dione] was run?
**A.** 8.22

**Q.** What about the pIC50 (CDK6-CYCLIND3; [1]) of the same compound?
**A.** 8.22

**Q.** And the pIC50 (CDK4-CYCLIND1; [2])?
**A.** 8.55

**Q.** And the pIC50 (CDK4-CYCLIND1; [6])?
**A.** 8.55

**Q.** How did the pIC50 (CDK6-CYCLIND3; [3]) turn out when `CC(C)N1CCN(c2ccc(Nc3ncc4c(n3)N(C35CC(C3)C5)C(=O)[C@]3(CCNC3=O)C4)cc2F)CC1` [Example D194, (S)-8-(bicyclo[1.1.1]pentan-1-yl)-2-((3-fluoro-4-(4-isopropylpiperazin-1-yl)phenyl)amino)-5,8-dihydro-7H-spiro[pyrido[2,3-d]pyrimidine-6,3′-pyrrolidine]-2′,7-dione] was run?
**A.** 7.51

**Q.** And the pIC50 (CDK4-CYCLIND1; [4])?
**A.** 7.76

**Q.** With `CN1C(=O)CC2(Cc3cnc(Nc4ccc(N5CCNCC5)c(F)c4)nc3N(C3CCCC3)C2=O)C1=O` (centres unmarked) [Example D27, 8-cyclopentyl-2-((3-fluoro-4-(piperazin-1-yl)phenyl)amino)-1′-methyl-5,8-dihydro-7H-spiro[pyrido[2,3-d]pyrimidine-6,3′-pyrrolidine]-2′,5′,7-trione] as the compound, how does the pIC50 (CDK6-CYCLIND3; [1]) read?
**A.** 6.85

**Q.** What about the pIC50 (CDK4-CYCLIND1; [2]) of the same compound?
**A.** 7.46

**Q.** `CC(C)N1CCN(c2ccc(Nc3ncc4c(n3)N(C3CCCC3)C(=O)C3(CCNC3=O)C4)cn2)CC1` (centres unmarked) [Example D6, 8-cyclopentyl-2-((6-(4-isopropylpiperazin-1-yl)pyridin-3-yl)amino)-5,8-dihydro-7H-spiro[pyrido[2,3-d]pyrimidine-6,3′-pyrrolidine]-2′,7-dione] was tested. Which pIC50 (CDK6-CYCLIND3; [1]) did it give?
**A.** 8.40

**Q.** What about the pIC50 (CDK4-CYCLIND1; [2]) of the same compound?
**A.** 8.73

**Q.** With `CN1C(=O)CC2(Cc3cnc(Nc4ccc(N5CCNCC5)nc4)nc3N(C3CCCC3)C2=O)C1=O` (centres unmarked) [Example D24, 8-cyclopentyl-1′-methyl-2-((6-(piperazin-1-yl)pyridin-3-yl)amino)-5,8-dihydro-7H-spiro[pyrido[2,3-d]pyrimidine-6,3′-pyrrolidine]-2′,5′,7-trione] as the compound, how does the pIC50 (CDK6-CYCLIND3; [1]) read?
**A.** 6.43

**Q.** What about the pIC50 (CDK4-CYCLIND1; [2]) of the same compound?
**A.** 6.90

**Q.** Which results are given for `CN1CCN(c2ccc(Nc3ncc4c(n3)N(C3CCCC3)C(=O)C3(CCNC3=O)C4)cc2F)CC1` (centres unmarked) [Example D12, 8-cyclopentyl-2-((3-fluoro-4-(4-methylpiperazin-1-yl)phenyl)amino)-5,8-dihydro-7H-spiro[pyrido[2,3-d]pyrimidine-6,3′-pyrrolidine]-2′,7-dione]?
**A.** pIC50 (CDK6-CYCLIND3; [5]): 8.54; pIC50 (CDK6-CYCLIND3; [1]): 8.54; pIC50 (CDK4-CYCLIND1; [2]): 8.74; pIC50 (CDK4-CYCLIND1; [6]): 8.74

**Q.** How did the pIC50 (CDK6-CYCLIND3; [1]) turn out when `Cc1cc(Nc2ncc3c(n2)N(C2CCCC2)C(=O)C2(CCNC2=O)C3)ccc1N1CCN(C(C)C)CC1` (centres unmarked) [Example D36, 8-cyclopentyl-2-((4-(4-isopropylpiperazin-1-yl)-3-methylphenyl)amino)-5,8-dihydro-7H-spiro[pyrido[2,3-d]pyrimidine-6,3′-pyrrolidine]-2′,7-dione] was run?
**A.** 8.34

**Q.** What about the pIC50 (CDK4-CYCLIND1; [2]) of the same compound?
**A.** 8.71

**Q.** How did the pIC50 (CDK6-CYCLIND3; [1]) turn out when `O=C1NCCC12Cc1cnc(Nc3ccc(OCCN4CCCC4)c(F)c3)nc1N(C1CCCC1)C2=O` (centres unmarked) [Example D16, 8-cyclopentyl-2-((3-fluoro-4-(2-(pyrrolidin-1-yl)ethoxy)phenyl)amino)-5,8-dihydro-7H-spiro[pyrido[2,3-d]pyrimidine-6,3′-pyrrolidine]-2′,7-dione] was run?
**A.** 8.06

**Q.** And the pIC50 (CDK4-CYCLIND1; [2])?
**A.** 8.28

**Q.** `CC(C)N1CCN(c2ccc(Nc3ncc4c(n3)N(C3CCCC3)C(=O)C3(CCNC3=O)C4)cc2)CC1` (centres unmarked) [Example D5] was tested. Which pIC50 (CDK6-CYCLIND3; [1]) did it give?
**A.** 8.25

**Q.** And the pIC50 (CDK4-CYCLIND1; [2])?
**A.** 8.58

**Q.** Which results are given for `O=C1NCCC12Cc1cnc(Nc3ccc(N4CCNCC4)cc3F)nc1N(C1CCCC1)C2=O` (centres unmarked) [Example D32, 8-cyclopentyl-2-((2-fluoro-4-(piperazin-1-yl)phenyl)amino)-5,8-dihydro-7H-spiro[pyrido[2,3-d]pyrimidine-6,3′-pyrrolidine]-2′,7-dione]?
**A.** pIC50 (CDK6-CYCLIND3; [1]): 7.95; pIC50 (CDK4-CYCLIND1; [2]): 8.29

**Q.** How did the pIC50 (CDK6-CYCLIND3; [1]) turn out when `CN1C(=O)CC2(Cc3cnc(Nc4ccc(N5CCNCC5)cn4)nc3N(C3CCCC3)C2=O)C1=O` (centres unmarked) [Example D23, 8-cyclopentyl-1′-methyl-2-((5-(piperazin-1-yl)pyridin-2-yl)amino)-5,8-dihydro-7H-spiro[pyrido[2,3-d]pyrimidine-6,3′-pyrrolidine]-2′,5′,7-trione] was run?
**A.** 4.18

**Q.** What about the pIC50 (CDK4-CYCLIND1; [2]) of the same compound?
**A.** 4.77

**Q.** Which results are given for `O=C1NCC[C@@]12Cc1cnc(Nc3ccc(OCCN4CCCC4)nc3)nc1N(C1CCCC1)C2=O` [Example D191, (S)-8-cyclopentyl-2-((6-(2-(pyrrolidin-1-yl)ethoxy)pyridin-3-yl)amino)-5,8-dihydro-7H-spiro[pyrido[2,3-d]pyrimidine-6,3′-pyrrolidine]-2′,7-dione]?
**A.** pIC50 (CDK6-CYCLIND3; [3]): 7.95; pIC50 (CDK4-CYCLIND1; [4]): 8.20

**Q.** With `CN(C)CCOc1ccc(Nc2ncc3c(n2)N(C2CCCC2)C(=O)C2(CCNC2=O)C3)cn1` (centres unmarked) [Example D14, 8-cyclopentyl-2-((6-(2-(dimethylamino)ethoxy)pyridin-3-yl)amino)-5,8-dihydro-7H-spiro[pyrido[2,3-d]pyrimidine-6,3′-pyrrolidine]-2′,7-dione] as the compound, how does the pIC50 (CDK6-CYCLIND3; [1]) read?
**A.** 7.68

**Q.** And the pIC50 (CDK4-CYCLIND1; [2])?
**A.** 7.97

**Q.** How did the pIC50 (CDK6-CYCLIND3; [1]) turn out when `CN(C)[C@H]1CCN(C(=O)c2ccc(Nc3ncc4c(n3)N(C3CCCC3)C(=O)C3(CCNC3=O)C4)cc2)C1` (stereo partly drawn) [Example D46, 8-cyclopentyl-2-((4-((S)-3-(dimethylamino)pyrrolidine-1-carbonyl)phenyl)amino)-5,8-dihydro-7H-spiro[pyrido[2,3-d]pyrimidine-6,3′-pyrrolidine]-2′,7-dione] was run?
**A.** 8.08

**Q.** What about the pIC50 (CDK4-CYCLIND1; [2]) of the same compound?
**A.** 8.49

**Q.** How did the pIC50 (CDK6-CYCLIND3; [1]) turn out when `O=C1NCCC12Cc1cnc(Nc3ccc(N4CC5(CNC5)C4)c(F)c3)nc1N(C1CCCC1)C2=O` (centres unmarked) [Example D43] was run?
**A.** 8.31

**Q.** What about the pIC50 (CDK4-CYCLIND1; [2]) of the same compound?
**A.** 8.62

**Q.** Which results are given for `O=C1NCCC12Cc1cnc(Nc3ccc(N4CCC(N5CCOCC5)CC4)cn3)nc1N(C1CCCC1)C2=O` (centres unmarked) [Example D39, 8-cyclopentyl-2-((5-(4-morpholinopiperidin-1-yl)pyridin-2-yl)amino)-5,8-dihydro-7H-spiro[pyrido[2,3-d]pyrimidine-6,3′-pyrrolidine]-2′,7-dione]?
**A.** pIC50 (CDK6-CYCLIND3; [1]): 7.88; pIC50 (CDK4-CYCLIND1; [2]): 8.14

**Q.** What does the source list for `CC(C)N1CCN(c2ccc(Nc3ncc4c(n3)N(C3CCCC3)C(=O)C3(CCN(C)C3=O)C4)cn2)CC1` (centres unmarked) [Example D18, 8-cyclopentyl-2-((6-(4-isopropylpiperazin-1-yl)pyridin-3-yl)amino)-1′-methyl-5,8-dihydro-7H-spiro[pyrido[2,3-d]pyrimidine-6,3′-pyrrolidine]-2′,7-dione]?
**A.** pIC50 (CDK6-CYCLIND3; [1]): 6.78; pIC50 (CDK4-CYCLIND1; [2]): 7.28

**Q.** What does the source list for `CC(C)N1CCN(c2ccc(Nc3ncc4c(n3)N(C3CCCC3)C(=O)C3(CCN(C)C3=O)C4)cc2)CC1` (centres unmarked) [Example D2, 8-cyclopentyl-2-((4-(4-isopropylpiperazin-1-yl)phenyl)amino)-1′-methyl-5,8-dihydro-7H-spiro[pyrido[2,3-d]pyrimidine-6,3′-pyrrolidine]-2′,7-dione]?
**A.** pIC50 (CDK6-CYCLIND3; [1]): 6.44; pIC50 (CDK4-CYCLIND1; [2]): 7.08
